We go through 20 compounds from patent US11951094B2, “TLR2 modulator compounds, pharmaceutical compositions and uses thereof” (Axial Therapeutics, Inc., priority 2020, dated 2024).

What is called EC50 is the concentration at which the effect is half-maximal. A higher EC50 goes with a need for much substance.

Bounds are passed on as bounds.

TLR2, sequence (O60603 21-784): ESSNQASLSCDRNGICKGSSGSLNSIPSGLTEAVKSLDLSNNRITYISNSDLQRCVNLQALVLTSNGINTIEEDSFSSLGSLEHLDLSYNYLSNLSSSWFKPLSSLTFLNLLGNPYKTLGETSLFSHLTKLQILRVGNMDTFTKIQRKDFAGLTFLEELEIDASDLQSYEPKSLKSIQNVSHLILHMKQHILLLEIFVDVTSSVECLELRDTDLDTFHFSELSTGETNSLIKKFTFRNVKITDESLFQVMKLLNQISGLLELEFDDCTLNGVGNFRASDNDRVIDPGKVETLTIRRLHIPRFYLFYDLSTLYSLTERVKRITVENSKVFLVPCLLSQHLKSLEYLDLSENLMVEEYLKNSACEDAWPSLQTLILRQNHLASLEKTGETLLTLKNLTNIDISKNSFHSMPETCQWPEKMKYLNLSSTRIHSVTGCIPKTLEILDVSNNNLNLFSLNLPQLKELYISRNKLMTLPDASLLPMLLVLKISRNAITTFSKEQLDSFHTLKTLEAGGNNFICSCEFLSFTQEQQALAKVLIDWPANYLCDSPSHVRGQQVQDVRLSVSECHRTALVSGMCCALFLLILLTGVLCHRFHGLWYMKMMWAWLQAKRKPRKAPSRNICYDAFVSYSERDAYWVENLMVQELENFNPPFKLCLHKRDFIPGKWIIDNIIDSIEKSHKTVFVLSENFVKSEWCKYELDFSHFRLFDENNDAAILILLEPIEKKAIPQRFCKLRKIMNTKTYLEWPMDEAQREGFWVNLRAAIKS

The first experiment concerns the target TLR2 (Homo sapiens, UniProt O60603). Briefly: TLR2 agonist screening assay, HEK-Blue TLR2 reporter cell line (NF-kB-driven SEAP, absorbance at 600 nm). It is filed as cell-based. The arrangement: host or cells: HEK-293 (HEK-Blue TLR2 reporter cell line). As to conditions: HEK-Blue TLR2 reporter cells, agonist mode; average of all runs (Table 3). The method in brief: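 HEK-293 cells expressing TLR2 with NF-kB-driven SEAP were plated at 40,000 per well. After 16-24 h, they were treated overnight with diluted agonists in detection medium (1% DMSO final). Absorbance at 600 nm was read, and EC50 values were fitted.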
For `CCCCCCNC(=O)[C@@H]1C[C@H](C(=O)NCCCCCC)CN(C(=O)c2ccc(C(=O)N3C[C@@H](C(=O)N[C@H]4C[C@@H]4c4ccccc4)[C@H](C(=O)N[C@H]4C[C@@H]4c4ccccc4)C3)cc2)C1` (relative stereo) [Compound 038, (3R*,5S*)-1-(4-((3S,4S)-3,4-bis(((1S,2R)-2-phenylcyclopropyl)carbamoyl)pyrrolidine-1-carbonyl)benzoyl)-N3,N5-dihexylpiperidine-3,5-dicarboxamide], the EC50 fell in the range of 351 to 1000 nM.
Same read-out and setting: then `CCCCCCCOC1CN(C(=O)c2ccc(C(=O)N3C[C@@H](C(=O)N[C@H]4C[C@@H]4c4ccccc4)[C@H](C(=O)N[C@H]4C[C@@H]4c4ccccc4)C3)cc2)C[C@H]1OCCCCCCC` (some centres unmarked) [Compound 016], with over 1000 nM; and `CCCCCCNC(=O)[C@@H]1CN(C(=O)c2ccc(C(=O)N3C[C@@H](C(=O)N[C@H]4C[C@@H]4c4ccccc4)[C@H](C(=O)N[C@H]4C[C@@H]4c4ccccc4)C3)cc2)C[C@H]1NC(=O)CCCCCC` [Compound 039], with over 1000 nM.
On the same count and under the same terms, then `CCCCCCNC(=O)[C@@H]1CN(C(=O)c2ccc(C(=O)N3C[C@@H](C(=O)N[C@H]4C[C@@H]4c4ccccc4)[C@H](C(=O)N[C@H]4C[C@@H]4c4ccccc4)C3)cc2)C[C@H]1C(=O)NCCCCCC` [Compound 035], with 0.1 to 50 nM.

Staying with this experiment, now noted: HEK-Blue TLR2 reporter cells, agonist mode; average of all runs (Table 4).
`CCCCCCCCCCCCCCC(=O)N[C@@H]1CN(C(=O)c2ccc(C(=O)N3C[C@@H](C(=O)N[C@H]4C[C@@H]4c4ccccc4)[C@H](C(=O)N[C@H]4C[C@@H]4c4ccccc4)C3)cc2)C[C@H]1O` [Compound 157, (3S,4S)-1-(4-((3R,4R)-3-hydroxy-4-pentadecanamidopyrrolidine-1-carbonyl)benzoyl)-N3,N4-bis ((1S,2R)-2-phenylcyclopropyl) pyrrolidine-3,4-dicarboxamide]: the EC50 is 351 to 1000 nM.
Still for that read-out and setting: then `O=C(N[C@H]1C[C@@H]1c1ccccc1)[C@@H]1CN(C(=O)C23CCC(C(=O)N4C[C@@H](C(=O)N[C@H]5C[C@@H]5c5ccccc5)[C@H](C(=O)N[C@H]5C[C@@H]5c5ccccc5)C4)(C2)C3)C[C@H]1C(=O)N[C@H]1C[C@@H]1c1ccccc1` [Compound 144, (3S,3'S,4S,4'S)-1,1′-(bicyclo[2.1.1]hexane-1,4-dicarbonyl)bis(N3,N4-bis((1S,2R)-2-phenylcyclopropyl)pyrrolidine-3,4-dicarboxamide)], with 351 to 1000 nM; and `CCCCCCCCCCCCCCNC(=O)[C@@H]1CN(C(=O)c2ccc(C(=O)N3C[C@@H](C(=O)N[C@H]4C[C@@H]4c4ccccc4)[C@H](C(=O)N[C@H]4C[C@@H]4c4ccccc4)C3)cc2)C[C@@H]1O` (single isomer, unassigned) [Compound 103, (3S,4S)-1-(4-((3R*,4R*)-3-hydroxy-4-(tetradecylcarbamoyl)pyrrolidine-1-carbonyl)benzoyl)-N3,N4-bis((1S,2R)-2-phenylcyclopropyl) pyrrolidine-3,4-dicarboxamide], with 351 to 1000 nM.
For the compound `CCCCCCCCCCCCCCCN1C[C@H](NC(=O)c2ccc(C(=O)N3C[C@@H](C(=O)N[C@H]4C[C@@H]4c4ccccc4)[C@H](C(=O)N[C@H]4C[C@@H]4c4ccccc4)C3)cc2)CCC1=O` [Compound 169, (3S,4S)-1-(4-(((R)-6-oxo-1-pentadecylpiperidin-3-yl)carbamoyl)benzoyl)-N3,N4-bis((1S,2R)-2-phenylcyclopropyl)pyrrolidine-3,4-dicarboxamide], the EC50 is over 1000 nM.
Same read-out and setting: the same measure for `CCCCCCCCCCCCCNC(=O)N[C@H]1CN(c2nnc(-c3ccc(C(=O)N4C[C@@H](C(=O)N[C@H]5C[C@@H]5c5ccccc5)[C@H](C(=O)N[C@H]5C[C@@H]5c5ccccc5)C4)cc3)o2)C[C@@H]1OC` [Compound 260, (3S,4S)-1-(4-(5-((3S,4S)-3-methoxy-4-(3-tridecylureido)pyrrolidin-1-yl)-1,3,4-oxadiazol-2-yl)benzoyl)-N3,N4-bis((1S,2R)-2-phenylcyclopropyl)pyrrolidine-3,4-dicarboxamide]: 0.1 to 50 nM; for `O=C(N[C@H]1C[C@@H]1c1ccccc1)[C@@H]1CN(C(=O)c2ccc(C(=O)N3C[C@@H](C(=O)N[C@H]4C[C@@H]4c4ccccc4)[C@H](C(=O)N[C@@H]4C[C@H]4c4cccnc4)C3)cc2)C[C@H]1C(=O)N[C@H]1C[C@@H]1c1ccccc1` (single isomer, unassigned) [Compound 097, (3S,4S)—N3-((1S)-2-phenylcyclopropyl)-N4-(2-phenylcyclopropyl)-1-(4-((3S,4S)-3-(((1S,2R)-2-phenylcyclopropyl)carbamoyl)-4-(((1S*,2R*)-2-(pyridin-3-yl)cyclopropyl)carbamoyl)pyrrolidine-1-carbonyl)benzoyl)pyrrolidine-3,4-dicarboxamide]: 51 to 350 nM.
For the compound `CCCCCCCCCCCCCNC(=O)N[C@H]1CN(c2nc3cc(C(=O)N4C[C@@H](C(=O)N[C@H]5C[C@@H]5c5ccccc5)[C@H](C(=O)N[C@H]5C[C@@H]5c5ccccc5)C4)ccc3o2)C[C@@H]1OC` [Compound 245, (3S,4S)-1-(2-((3S,4S)-3-methoxy-4-(3-tridecylureido)pyrrolidin-1-yl)benzo[d]oxazole-5-carbonyl)-N3,N4-bis((1S,2R)-2-phenylcyclopropyl)pyrrolidine-3,4-dicarboxamide], the EC50 is over 1000 nM.
Same read-out and setting: then `CCCCCCCCN1CC(C(=O)NCCCCCC)CN(Cc2ccc(C(=O)N3C[C@@H](C(=O)N[C@H]4C[C@@H]4c4ccccc4)[C@H](C(=O)N[C@H]4C[C@@H]4c4ccccc4)C3)cc2)C1=O` (stereo partly drawn) [Compound 178, (3S,4S)-1-(4-((5-(hexylcarbamoyl)-3-octyl-2-oxotetrahydropyrimidin-1 (2H)-yl)methyl)benzoyl)-N3,N4-bis((1S,2R)-2-phenylcyclopropyl)pyrrolidine-3,4-dicarboxamide], with 351 to 1000 nM.
Same read-out and setting: then `CCCCCCCCCCCCCCNC(=O)C[C@@H]1CCCN1C(=O)c1ccc(C(=O)N2C[C@@H](C(=O)N[C@H]3C[C@@H]3c3ccccc3)[C@H](C(=O)N[C@H]3C[C@@H]3c3ccccc3)C2)cc1` [Compound 135, (3S,4S)-1-(4-((S)-2-(2-oxo-2-(tetradecylamino)ethyl)pyrrolidine-1-carbonyl)benzoyl)-N3,N4-bis((1S,2R)-2-phenylcyclopropyl) pyrrolidine-3,4-dicarboxamide], with over 1000 nM; and `CCCCCCCCCCCCCCC(=O)N[C@@H]1CN(C(=O)c2ccc(C(=O)N3C[C@@H](C(=O)N[C@H]4C[C@@H]4c4ccccc4)[C@H](C(=O)N[C@H]4C[C@@H]4c4ccccc4)C3)cc2)C[C@H]1OC` [Compound 154, (3S,4S)-1-(4-((3R,4R)-3-methoxy-4-pentadecanamidopyrrolidine-1-carbonyl)benzoyl)-N3,N4-bis((1S,2R)-2-phenylcyclopropyl) pyrrolidine-3,4-dicarboxamide], with 351 to 1000 nM.
For the compound `CCCCCCCO[C@@H]1CN(C(=O)c2ccc(C(=O)N3C[C@@H](C(=O)N[C@H]4C[C@@H]4c4ccccc4)[C@H](C(=O)N[C@H]4C[C@@H]4c4ccccc4)C3)cc2)C[C@H]1NC(=O)CCCCCC` [Compound 155, (3S,4S)-1-(4-((3R,4R)-3-heptanamido-4-(heptyloxy)pyrrolidine-1-carbonyl)benzoyl)-N3,N4-bis((1S,2R)-2-phenylcyclopropyl)pyrrolidine-3,4-dicarboxamide], the EC50 was over 1000 nM.
With `CCCCCCCCCCCCCCNC(=O)[C@H]1CN(C(=O)c2ccc(C(=O)N3C[C@@H](C(=O)N[C@H]4C[C@@H]4c4ccccc4)[C@H](C(=O)N[C@H]4C[C@@H]4c4ccccc4)C3)cc2)C[C@@H]1O` (single isomer, unassigned) [Compound 106, (3S,4S)-1-(4-((3S*,4R*)-3-hydroxy-4-(tetradecylcarbamoyl)pyrrolidine-1-carbonyl)benzoyl)-N3,N4-bis((1S,2R)-2-phenylcyclopropyl)pyrrolidine-3,4-dicarboxamide], the EC50 lay in the range of 51 to 350 nM.
Same read-out and setting: then `CCCCCCCO[C@H]1CN(C(=O)c2ccc(C(=O)N3C[C@@H](C(=O)N[C@H]4C[C@@H]4c4ccccc4)[C@H](C(=O)N[C@H]4C[C@@H]4c4ccccc4)C3)cc2)C[C@@H]1NC(=O)CCCCCC` [Compound 080, (3S,4S)-1-(4-((3S,4S)-3-heptanamido-4-(heptyloxy)pyrrolidine-1-carbonyl)benzoyl)-N3,N4-bis((1S,2R)-2-phenylcyclopropyl)pyrrolidine-3,4-dicarboxamide], with 51 to 350 nM.
On the same count and under the same terms, then `CCCCCCCCCCCCCCNC(=O)[C@@H]1CN(C(=O)c2ccc(C(=O)N3C[C@@H](C(=O)N[C@H]4C[C@@H]4c4ccccc4)[C@H](C(=O)N[C@H]4C[C@@H]4c4ccccc4)C3)cc2)C[C@H]1NC` [Compound 098, (3S,4S)-1-(4-((3S,4R)-3-(methylamino)-4-(tetradecylcarbamoyl)pyrrolidine-1-carbonyl)benzoyl)-N3,N4-bis((1S,2R)-2-phenylcyclopropyl)pyrrolidine-3,4-dicarboxamide], with 0.1 to 50 nM; and `CCCCCCCCCCCCNC(=O)N[C@H]1CN(C(c2ccc(C(=O)N3C[C@@H](C(=O)N[C@H]4C[C@@H]4c4ccccc4)[C@H](C(=O)N[C@H]4C[C@@H]4c4ccccc4)C3)cc2)C(F)(F)F)C[C@@H]1OC` (single isomer, unassigned) [Compound 233, (3S,4S)-1-(4-((S*)-1-((3S,4S)-3-(3-dodecylureido)-4-methoxypyrrolidin-1-yl)-2,2,2-trifluoroethyl)benzoyl)-N3,N4-bis((1S,2R)-2-phenylcyclopropyl)pyrrolidine-3,4-dicarboxamide], with 0.1 to 50 nM; and `CCCCCCCCCCCCCCN1C(=O)CNC(=O)[C@@H]1CNC(=O)c1ccc(C(=O)N2C[C@@H](C(=O)N[C@H]3C[C@@H]3c3ccccc3)[C@H](C(=O)N[C@H]3C[C@@H]3c3ccccc3)C2)cc1` [Compound 147, (3S,4S)-1-(4-((((S)-3,6-dioxo-1-tetradecylpiperazin-2-yl)methyl)carbamoyl)benzoyl)-N3,N4-bis((1S,2R)-2-phenylcyclopropyl)pyrrolidine-3,4-dicarboxamide], with over 1000 nM.
